US20110151534A1, “[…] ORGANIC COMPOUNDS USING R[…] […] HALIDE TRANSFERASE” (priority 2007, published 2011)

Columns and labels:
[1] = target: methyl halide transferase (Batis maritima, UniProt Q9ZSZ7); settings: halide ion as substrate; Attieh et al. 1995, Ni and Hager 1999; cited from earlier work
RAD50Δ mutant = assay type: cell-based, Saccharomyces cerevisiae; settings: RAD50Δ mutant compared with W303a
Text: (§1) FIG. 11A-D: Methyl iodide production in recombinant S. cerevisiae. FIG. 11A. CH3I production pathway. The B. maritima MHT is expressed with a N-terminal vacuole targeting tag. The […] MHT methylates iodide ions using SAM as a methyl donor. FIG. 11B, CH3I measured in culture headspace over time. Activity on glucose-grown cells is shown. FIG. 11C, CH3I yields in grams per liter of culture per day. Values for the culturable red algae E. muricata are taken from the literature. Yields from B. maritima MHT-expressing E. coli and S. cerevisiae are calculated by comparison to standard curves. FIG. 11D, CH3I toxicity in yeast. Exponential phase cultures were diluted to an OD600 of 0.05 and commercially available CH3I was added. OD600 was measured at 24 hours of growth. The W303a lab strain is shown in filled boxes, the DNA methylation-sensitive RAD50Δ mutant is shown in open boxes.
(§2) Individual colonies were inoculated in YP media with 2% glucose and grown overnight. Cultures were diluted to an OD600 of 0.05 and methyl iodide was added to the specified amount. […] OD600 was measured by spectrometry with YP media used as a blank. Each data point was performed in triplicate. The RAD50Δ mutant was obtained from the Saccharomyces Genome Deletion Project (Invitrogen).

S. cerevisiae W303a = assay: Methyl iodide toxicity assay in yeast; assay type: cell-based, Saccharomyces cerevisiae; settings: OD600 at 24 hours of growth, commercially available CH3I added
Text: as §1, §2

methyl halide transferase, sequence (Q9ZSZ7 1-230): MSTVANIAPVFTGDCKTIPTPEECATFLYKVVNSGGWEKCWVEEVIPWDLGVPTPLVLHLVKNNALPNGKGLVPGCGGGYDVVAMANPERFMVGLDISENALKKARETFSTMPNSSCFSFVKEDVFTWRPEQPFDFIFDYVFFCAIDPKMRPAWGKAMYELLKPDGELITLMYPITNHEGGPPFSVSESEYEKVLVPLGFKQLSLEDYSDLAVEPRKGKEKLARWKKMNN

For [Br-].[K+] [Br^−, bromide], the Km [1] is listed as 18.5 mM.
In the case of I [I^−, iodide], the Km [1] is given as 8.5 mM.
With CI [methyl iodide] the “sensitivity to methyl iodide” value (RAD50Δ mutant) was “increased sensitivity” and the “level up to which yeast were resistant to deleterious methylating effects of methyl iodide” value (S. cerevisiae W303a) was over 5000 µg/mL.
